The test system of data set [1] is Glucodextranase, i.e. exo-type dextranase. The experiment in a line: enzymatic hydrolysis with glucodextranase (exo-type dextranase). Format: biochemical. Particulars: 1% solution; FIG. 2. From the text:
10. Glucodextranase, i.e. exo-type dextranase, was allowed to act on the present compounds (1% solution), but they were not hydrolyzed at all as shown in FIG. 2.

The nature of data set [2]: discoloration / decomposition temperature (melting point measuring instrument). Particulars: definite melting points could not be determined. Format: physicochemical. The text has this: 3. The definite melting points of the present compounds could not be determined in a melting point measuring instrument manufactured by Yanagimoto Co., Ltd. Their discoloration temperature ranges together with decomposition temperatures are as follows: […]

The record followed here is patent US5453369A, “Enzyme for producing novel cyclooisomaltooligosaccharides” (Kikkoman Corporation, priority 1992, dated 1995).

For the molecule `OC[C@H]1O[C@H](OC[C@H]2O[C@H](OC[C@H]3O[C@H](OC[C@H]4O[C@H](OC[C@H]5O[C@H](OC[C@H]6OC(O)[C@H](O)[C@@H](O)[C@@H]6O)[C@H](O)[C@@H](O)[C@@H]5O)[C@H](O)[C@@H](O)[C@@H]4O)[C@H](O)[C@@H](O)[C@@H]3O)[C@H](O)[C@@H](O)[C@@H]2O)[C@H](O)[C@@H](O)[C@@H]1O` (some centres unmarked) [isomaltohexaose], the hydrolysis by glucodextranase entry in data set [1] is on record as “completely hydrolyzed”. The same measure, in the same setting: to `OC[C@H]1O[C@H](OC[C@H]2O[C@H](OC[C@H]3O[C@H](OC[C@H]4O[C@H](OC[C@H]5O[C@H](OC[C@H]6O[C@H](OC[C@H]7OC(O)[C@H](O)[C@@H](O)[C@@H]7O)[C@H](O)[C@@H](O)[C@@H]6O)[C@H](O)[C@@H](O)[C@@H]5O)[C@H](O)[C@@H](O)[C@@H]4O)[C@H](O)[C@@H](O)[C@@H]3O)[C@H](O)[C@@H](O)[C@@H]2O)[C@H](O)[C@@H](O)[C@@H]1O` (some centres unmarked) [isomaltoheptaose] belongs “completely hydrolyzed”. Consider `O[C@@H]1[C@@H](O)[C@H]2OC[C@H]3O[C@H](OC[C@H]4O[C@H](OC[C@H]5O[C@H](OC[C@H]6O[C@H](OC[C@H]7O[C@H](OC[C@H]8O[C@H](OC[C@@H](O2)[C@H]1O)[C@H](O)[C@@H](O)[C@@H]8O)[C@H](O)[C@@H](O)[C@@H]7O)[C@H](O)[C@@H](O)[C@@H]6O)[C@H](O)[C@@H](O)[C@@H]5O)[C@H](O)[C@@H](O)[C@@H]4O)[C@H](O)[C@@H](O)[C@@H]3O` [Cycloisomaltoheptaose, cycloisomaltoheptaose], for which the “discoloration temperature ranges together with decomposition temperatures” value in data set [2] was 234-238 °C. On the same count and under the same terms, the result for `O[C@@H]1[C@@H](O)[C@H]2OC[C@H]3O[C@H](OC[C@H]4O[C@H](OC[C@H]5O[C@H](OC[C@H]6O[C@H](OC[C@H]7O[C@H](OC[C@H]8O[C@H](OC[C@H]9O[C@H](OC[C@@H](O2)[C@H]1O)[C@H](O)[C@@H](O)[C@@H]9O)[C@H](O)[C@@H](O)[C@@H]8O)[C@H](O)[C@@H](O)[C@@H]7O)[C@H](O)[C@@H](O)[C@@H]6O)[C@H](O)[C@@H](O)[C@@H]5O)[C@H](O)[C@@H](O)[C@@H]4O)[C@H](O)[C@@H](O)[C@@H]3O` [Cycloisomaltooctaose, cycloisomaltooctaose] reads 238-241 °C; that for `O[C@@H]1[C@@H](O)[C@H]2OC[C@H]3O[C@H](OC[C@H]4O[C@H](OC[C@H]5O[C@H](OC[C@H]6O[C@H](OC[C@H]7O[C@H](OC[C@H]8O[C@H](OC[C@H]9O[C@H](OC[C@H]%10O[C@H](OC[C@@H](O2)[C@H]1O)[C@H](O)[C@@H](O)[C@@H]%10O)[C@H](O)[C@@H](O)[C@@H]9O)[C@H](O)[C@@H](O)[C@@H]8O)[C@H](O)[C@@H](O)[C@@H]7O)[C@H](O)[C@@H](O)[C@@H]6O)[C@H](O)[C@@H](O)[C@@H]5O)[C@H](O)[C@@H](O)[C@@H]4O)[C@H](O)[C@@H](O)[C@@H]3O` [Cycloisomaltononaose, cycloisomaltononaose], 239-242 °C.
